“And” between values parts separate entries of the source, which are not always exact repeats. Equal values may be shown once. “Also recorded” adds a separate entry of the source. Read-outs that look alike come from different tables or passages of the source.
Legend:
[1] = system: CT26 #7 tumor tissue T cells; assay: Flow cytometry of T cells in CT26 #7 tumor tissue 1 h after last Q3D dose; type: in vivo, BALB/c-hCD137 mice; details: 5 mg/kg ip Q3D, 1 h after 6th dose
Method: 1 hour after the last vehicle or BCY11863 dose the […] bearing mice were sacrificed and tumors were harvested, processed for single cell suspensions and stained for flow cytometry analysis for total T cells (CD45+CD3+), CD8+ T cells (CD45+CD3+CD8+), CD4+ T cells (CD45+CD3+CD4+) and regulatory T cells (Tregs; CD45+CD3+CD4+Foxp3+).

CT26 #7 tumors = assay: Anti-tumor activity in syngeneic Nectin-4 overexpressing CT26 tumor model (CT26 #7); type: in vivo, BALB/c-hCD137 mice; details: 5 mg/kg ip Q3D, 6 doses; from day 7 forward
Method: 6-8 weeks old BALB/c-hCD137 female mice were inoculated in the flank with 3×10^5 syngeneic Nectin-4 overexpressing CT26 cells (CT26 #7). When tumors reached around 70 mm^3 size on average, mice were randomized to receive vehicle or 5 mg/kg BCY11863 intraperitoneally every three days (6 doses total). Tumor growth was monitored by caliper measurements until day 14 after treatment initiation.

MC38 #13 tumors = assay: Re-inoculation of complete responders with MC38 #13 cells (immunogenic memory); type: in vivo, C57BL/6J-hCD137 mice; details: re-inoculated day 69 with 1x10^6 MC38 #13 cells; 22 days observation
Source text: On day 69, 5 animals that had responded completely to BCY11863 treatment were re-inoculated with 1×10^6 MC38 #13-cells. A cohort of 5 naïve C57BL/6J-hCD137 female mice were inoculated with 1×10^6 MC38 #13-cells as a control.

[2] = Pharmacokinetic profiles in plasma and tumor tissue of CT26 #7 tumor bearing animals; type: in vivo, BALB/c mice; details: female, BALB/c, mouse, single iv 5 mg/kg
Method: 6-8 weeks old BALB/c female mice were inoculated in the flank with 3×10^5 syngeneic Nectin-4 overexpressing CT26 cells (CT26 #7). When tumors reached around 400 mm^3 size on average, mice were randomized to receive a single intravenous dose of vehicle or 5 mg/kg BCY11863. A cohort of mice (n=3/timepoint) were sacrificed at 0.25, 0.5, 1, 2, 4, 8 and 24 h timepoints and harvested plasma and tumor tissue were analyzed for BCY11863. For tumor BCY11863 content analysis, tumor homogenate was prepared by homogenizing tumor tissue with 10 volumes (w:v) of homogenizing solution (MeOH/15 mM PBS (1:2, v:v)). 40 μL of sample was quenched with 200 μL IS1 and the mixture was mixed by vortexing for 10 min at 800 rpm and centrifuged for 15 min at 3220 g at 4° C. The supernatant was transfer to another clean 96-well plate and centrifuged for 5 min at 3220 g at 4° C., and 10.0 μL of supernatant was then injected for LC-MS/MS analysis using an Orbitrap Q Exactive in positive ion mode to determine the concentrations of analyte. For plasma BCY11863 content analysis, blood samples were collected in K2-EDTA tubes and immediately processed to plasma by centrifugation at approximately 4° C., 3000 g. 40 μL of plasma sample was quenched with 200 μL IS1 and the mixture was mixed by vortexing for 10 min at 800 rpm and centrifuged for 15 min at 3220 g at 4° C. […]

human Nectin-4 = molecular target: T1, human Nectin-4 (Homo sapiens, UniProt Q96NY8); assay: SPR direct binding to biotinylated Nectin-4 extracellular domain, human
T1 sequence (Q96NY8 32-349 limits assumed): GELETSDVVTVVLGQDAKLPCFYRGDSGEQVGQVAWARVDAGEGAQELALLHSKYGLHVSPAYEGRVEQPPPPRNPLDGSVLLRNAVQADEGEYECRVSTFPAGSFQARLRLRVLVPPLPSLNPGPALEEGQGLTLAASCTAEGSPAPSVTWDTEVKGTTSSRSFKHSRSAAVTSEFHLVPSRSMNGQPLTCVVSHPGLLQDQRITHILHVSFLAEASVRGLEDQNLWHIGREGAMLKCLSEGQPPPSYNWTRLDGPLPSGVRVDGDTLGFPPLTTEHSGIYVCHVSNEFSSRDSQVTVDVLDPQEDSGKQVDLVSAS
Source text: The binding of BCY11863 to its primary target Nectin-4 and CD137 was characterized using surface plasmon resonance (SPR).

human PBMCs = assay: Human PBMC-tumor cell co-culture (cytokine stimulation) assay with Nectin-4-expressing tumor cells; type: cell-based
Method: Tumor cell lines were cultured according to suppliers recommended protocol. Frozen PBMCs from healthy human donors were thawed and washed one time in room temperature PBS, and then resuspended in R10 medium. 100 μl of PBMCs (1,000,000 PBMCs/ml) and 100 μl of tumor cells (100,000 tumor cells/ml) (Effector:Target cell ratio (E:T) 10:1) were plated in each well of a 96 well flat bottom plate for the co-culture assay. 100 ng/ml of soluble anti-CD3 mAb (clone OKT3) was added to the culture on day 0 to stimulate human PBMCs. Test, control compounds, or vehicle controls were diluted in R10 media and 50 μL was added to respective wells to bring the final volume per well to 250 μL. Plates were covered with a breathable film and incubated in a humidified chamber at 37° C. with 5% CO2 for […]. Supernatants were collected 48 hours after stimulation, and human IL-2 and IFN-γ were detected by Luminex. Briefly, the standards and samples were added to black 96 well plate. Microparticle cocktail (provided in Luminex kit, R&D Systems) was added and shaken for 2 hours at room temperature. The plate was washed 3 times using magnetic holder. Biotin cocktail was then added to the plate and shaken for 1 hour at RT. The plate was washed 3 times using magnetic holder. Streptavidin cocktail was added to the plate and shaken for 30 minutes at RT. The plates were washed 3 times using magnetic holder, resuspended in 100 μL of wash buffer, shaken for 2 minutes at RT, and read using the Luminex 2000. Raw data were analyzed using built-in Luminex software to generate standard curves and interpolate protein concentrations, all other data analyses and graphing were performed using Excel and Prism software. […]

For CCCC[C@@H]1NC(=O)[C@H](Cc2ccc(O)cc2)NC(=O)[C@@H]2CCCN2C(=O)[C@H](CC(=O)O)NC(=O)[C@H](C)NC(=O)[C@H](Cc2ccccc2)NC(=O)[C@@H]2CSCCC(=O)N3CN(CN(C3)C(=O)CCSC[C@@H](C(=O)N[C@@H](C)C(N)=O)NC1=O)C(=O)CCSC[C@H](NC(C)=O)C(=O)N[C@@H](CC(C)(C)C)C(=O)N1CCC[C@H]1C(=O)N[C@@H](CCC(=O)O)C(=O)N[C@H](CCCCNC(=O)CCc1cn(CCOCCOCCOCCN(CCOCCOCCOCCC(=O)N[C@H]3CSCCC(=O)N4CN5CN(C4)C(=O)CCSC[C@H](NC(=O)[C@@H](CC(=O)O)NC(=O)[C@H](Cc4cccc6ccccc46)NC(=O)[C@@H]4CCCN4C3=O)C(=O)N[C@@H](CCSC)C(=O)N[C@@H](CCCCNC(=N)N)C(=O)N[C@@H](CC(=O)O)C(=O)N[C@@H](Cc3c[nH]c4ccccc34)C(=O)N[C@@H](CO)C(=O)N[C@@H]([C@@H](C)O)C(=O)N3CCC[C@H]3C(=O)N3C[C@H](O)C[C@H]3C(=O)N[C@@H](Cc3c[nH]c4ccccc34)C(=O)N[C@H](C(N)=O)CSCCC5=O)CCOCCOCCOCCn3cc(CCC(=O)NCCCC[C@H]4NC(=O)[C@H](CCC(=O)O)NC(=O)[C@@H]5CCCN5C(=O)[C@H](CC(C)(C)C)NC(=O)[C@@H](NC(C)=O)CSCCC(=O)N5CN6CN(C5)C(=O)CCSC[C@H](NC(=O)[C@H](Cc5ccc(O)cc5)NC(=O)[C@@H]5CCCN5C4=O)C(=O)N[C@@H](Cc4ccccc4)C(=O)N[C@@H](C)C(=O)N[C@@H](CC(=O)O)C(=O)N4CCC[C@H]4C(=O)N[C@@H](Cc4ccc(O)cc4)C(=O)N[C@@H](CCCC)C(=O)N[C@H](C(=O)N[C@@H](C)C(N)=O)CSCCC6=O)nn3)nn1)C(=O)N1CCC[C@H]1C(=O)N[C@@H](Cc1ccc(O)cc1)C(=O)N2 [BCY11863], the “CD8+ T cells in tumor” value ([1]; p<0.0001) was “significant increase”, the “total T cells (CD45+CD3+) in tumor” value ([1]; p<0.0001) was “significant increase” and the “CD8+ T cell/Treg ratio in tumor” value ([1]; p<0.05) was “significant increase”. The tumor growth (CT26 #7 tumors) was “significantly (p<0.0001, Student's t-test) reduced the tumor growth”, the “tumor development after re-inoculation of complete responders” value (MC38 #13 tumors) was “none of the CR mice developed tumors; also recorded: none of the inoculated complete responder mice developed tumors” and the half-life ([2]; plasma, read-out: plasma T1/2 (converted)) was 1.65 h. The half-life ([2]; tumor tissue, read-out: tumor T1/2 (converted)) was 13.4 h, the Kd (human Nectin-4; KD, biotinylated ECD captured on streptavidin chip) was 5 to 27 nM and 4.1 nM and the Kd (human Nectin-4; SPR KD Human (25° C.), Direct Binding, biotinylated Nectin-4 extracellular domain, 25° C.) was 5 ± 2.1 nM. The Kd (human Nectin-4; SPR KD Human (37° C.), Direct Binding, biotinylated Nectin-4 extracellular domain, 37° C.) was 5.2 ± 1.1 nM, the EC50 (human PBMCs; 4T1-D02 (mouse), 4 donors, read-out: IFNy (nM), EC50 of cytokine secretion) was 0.04 ± 0.04 nM and the EC50 (human PBMCs; 4T1-D02 (mouse), 4 donors, read-out: IL-2 (nM), EC50 of cytokine secretion) was 0.16 ± 0.22 nM. The EC50 (human PBMCs; 4T1-Parental (Nectin4-), read-out: IFNy (nM), EC50 of cytokine secretion) was over 100 nM, the EC50 (human PBMCs; 4T1-Parental (Nectin4-), read-out: IL-2 (nM), EC50 of cytokine secretion) was over 100 nM and the EC50 (human PBMCs; H322 (human), 3 donors, read-out: IFNy (nM), EC50 of cytokine secretion) was 0.85 ± 0.66 nM. The EC50 (human PBMCs; H322 (human), 3 donors, read-out: IL-2 (nM), EC50 of cytokine secretion) was 0.84 ± 0.15 nM, the EC50 (human PBMCs; HT1376 (human), 5 donors, read-out: IFNy (nM), EC50 of cytokine secretion) was 0.23 ± 0.15 nM and the EC50 (human PBMCs; HT1376 (human), 5 donors, read-out: IL-2 (nM), EC50 of cytokine secretion) was 0.39 ± 0.29 nM. For the same molecule, the EC50 (human PBMCs; MC38 #13 (mouse), 4 donors, read-out: IFNy (nM), EC50 of cytokine secretion) was 0.17 ± 0.11 nM, the EC50 (human PBMCs; MC38 #13 (mouse), 4 donors, read-out: IL-2 (nM), EC50 of cytokine secretion) was 0.25 ± 0.08 nM and the “IL-2 and IFN-γ cytokine secretion” value (human PBMCs; PBMC-4T1 (Nectin-4 engineered) co-culture, FIGS. 2A, 2B) was “induces robust IL-2 and IFN-γ cytokine secretion”. The EC50 (human PBMCs; T-47D (human), 3 donors, read-out: IFNy (nM), EC50 of cytokine secretion) was 0.08 ± 0.06 nM and the EC50 (human PBMCs; T-47D (human), 3 donors, read-out: IL-2 (nM), EC50 of cytokine secretion) was 0.2 ± 0.07 nM.

Reference: patent publication US20230129258A1, “HETEROTANDEM BICYCLIC PEPTIDE COMPLEXES” (BicycleTx Limited, priority 2019, published 2023)
